Values quoted from earlier work, collected in patent publication US7951359B2, “Compositions and methods for therapy or prevention of chemotherapy-induced neuropathy” (Merck Serono SA, priority 2004, dated 2011).

Tested on: CIPN caused by carboplatin/paclitaxel
Details: 2 or 4 μg/kg sub coetaneous daily for 7 days; cited from earlier work

LIF: Recombinant leukemia inhibitor factor (LIF), another gp130 activator
prevention of CIPN: ineffective at preventing CIPN
